Measurements from publication PMC8399847, “Hybrid Quinolinyl Phosphonates as Heterocyclic Carboxylate Isosteres: Synthesis and Biological Evaluation against Topoisomerase 1B (TOP1B)” (Pharmaceuticals, 2021).

Experiments:
[1] = system: murine splenocytes; experiment: Splenocyte viability, Alamar Blue; type: cell-based, BALB/c mice; settings: for IC50: Mus musculus, Splenocyte, read-out: IC50 Splenocites; for SI (selectivity index): ratio IC50 splenic cells / EC50 amastigotes
Procedure: The viability of splenocytes cells against the different compounds was measured using the Alamar Blue staining method (Invitrogen, MA, USA). For this purpose, these cells were obtained following the protocol indicated in the previous section, from uninfected mice. Plots of absorbance of viable cells (obtained following manufacturer’s recommendations of Alamar Blue) vs compounds concentration were used to calculate CC50 values. Plots were fitted by nonlinear analysis using the Sigma Plot 10.1 statistical package. The assays were performed by triplicate.
The selectivity index for each compound was calculated as the ratio between the IC50 value for splenic cells and the EC50 value for amastigotes.

[2] = system: A549 (human lung adenocarcinoma cells); experiment: CCK-8 cytotoxicity assay, A549; type: cell-based; settings: A549, 48 h, read-out: Cytotoxicity IC50 Lung A549
Procedure: (§1) The cytotoxicity of the newly synthesized quinolinylphosphonates 7 was evaluated in vitro by testing their antiproliferative activities against several human cancer cell lines: A549 (human lung adenocarcinoma cells), SKOV3 (human ovarian carcinoma), and HEK293 (human embryonic kidney). In order to analyze the selective cytotoxicity facing exclusively cancerous cell lines, cytotoxicity against non-cancerous cell lines (MRC-5, lung fibroblast cells) was also evaluated. Cell counting kit (CCK-8) assay was employed to assess growth inhibition and, cell proliferation inhibitory activities of compounds that are listed in Table 1 as IC50 values. […] According to the data presented in Table 1, in general, all these phosphorated derivatives present higher selective cytotoxicity in the A549 cell line than in the other two cell lines, SKOV3 and HEK293, although slight differences are observed compared to human ovarian carcinoma (SKOV3).
(§2) Cells were cultured according to the supplier’s instructions, A549 (ATCC® CCL-185), SKOV3 (ATCC® HTB-77), HEK293 (CLS GmbH), MRC-5 (ATCC® CCL-171™). Cells were seeded in 96-well plates at a density of 2–2.5 × 10^3 cells per well and incubated overnight in 0.1 mL of media supplied with 10% Fetal Bovine Serum (Lonza, Basel, Switzerland) in a 5% CO2 incubator at 37 °C. On day 2, drugs (concentration between 0.5–50 μM) were added and samples were incubated for 48 h. After treatment, 10 μL of cell counting kit-8 was added to each well for an additional 2 h incubation at 37 °C. The absorbance of each well was determined by an Automatic Elisa Reader System at 450 nm wavelength. CPT was purchased from Sigma-Aldrich and used as a positive control.

[3] = system: leishmanial TOP1B (LTOP1B); experiment: LTOP1B relaxation activity assay; type: biochemical, Leishmania; settings: 100 µM of compound, 1 min
Procedure: The inhibition of relaxation activity of LTOP1B by the compounds was tested at 100 µM. The reactions were performed for 1 min in the way described in the experimental protocols section. The percentage of inhibition was calculated by measuring the intensity of the band corresponding to the supercoiled DNA when the different DNA topoisomers were separated in an agarose gel.
Purification of leishmanial DNA topoisomerase 1B (LTOP1B) was carried out as reported previously. Shortly, LTOP1B was purified using the deficient in TOP1 activity yeast strain, EKY3 MAT α ura3–52 his3Δ20ting, from the union of the bicistronic expression vector pESC-URA to both subunits of LTOP1B. The yeast cells were grown in a yeast synthetic drop-out medium without uracil (Sigma) supplemented with 2% raffinose (w/v) to OD600: 0.8–1 and induced for 10 h with 2% galactose (w/v). After that, the cells were harvested, washed with cold TEEG buffer (50 mM Tris–HCl pH 7.4, 1 mM EDTA, 1 mM EGTA, 10% glycerol), resuspended in 15 mL of 1× TEEG buffer supplemented with 0.2 M KCl and a protease inhibitors cocktail (Thermo Scientific, Waltham, MA, USA) and lysed. Protein extract obtained was loaded on a 5 mL Heparin Sepharose column (GE Healthcare, MA, USA). LTOP1B enzyme was eluted at 4 °C with a discontinuous gradient of KCl (0.2, 0.4, 0.6 M) in TEEG buffer.
Leishmanial TOP1B activity was tested by the relaxation of supercoiled plasmid DNA assay. Each reaction contained: one unit of purified LTOP1B enzyme, 100 µM of each compound, 0.5 μg of supercoiled pSK DNA, 10 mM Tris-HCl buffer pH 7.5, 5 mM MgCl2, 0.1 mM EDTA, 15 µg/mL bovine serum albumin, and 150 mM KCl. The final volume of each reaction was 20 µL. Reaction mixtures were incubated for 1 min at 37 °C and stopped by the addition of a 4 µL loading buffer (5% sarkosyl, 0.12% bromophenol blue, 25% glycerol). The DNA topoisomers were resolved in 1% agarose gels by electrophoresis in 0.1 M Tris borate EDTA buffer (pH 8.0) at 2 V/cm for 16 h and visualized with UV illumination after ethidium bromide (0.5 μg/mL) staining. The percentage of inhibition was calculated by measuring the intensity of the band corresponding to the supercoiled DNA after separating and staining the different DNA topoisomers. This analysis was performed using the GeneTools from Syngene software (Version 4.3.8, MD, USA).

[4] = system: HEK293 (human embryonic kidney); experiment: CCK-8 cytotoxicity assay, HEK293; type: cell-based; settings: HEK293, 48 h, CCK-8, 50% growth inhibition
Procedure: as §1, §2

| SMILES | melting point [°C] | IC50 [1] [µM] | SI (selectivity index) [1] | IC50 [2] [µM] | LTOP1B Inhibition [3] [%] | IC50 [4] [µM] |
| --- | --- | --- | --- | --- | --- | --- |
| CCOP(=O)(OCC)c1ccc2nc(-c3ccc(F)cc3)cc(-c3ccc(F)cc3)c2c1 [7t, Diethyl (2,4-bis(4-fluorophenyl)quinolin-6-yl)phosphonate] | 161 to 164 | 45 ± 10.2 | 1.4 | 2.85 ± 1.26 | 37.86 | > 50 |
| CCOP(=O)(OCC)c1cccc2c(-c3ccc(F)cc3)cc(-c3ccc(F)c(F)c3)nc12 [7i, Diethyl (2-(3,4-difluorophenyl)-4-(4-fluorophenyl)quinolin-8-yl)phosphonate] | 159 to 161 | 20.6 ± 3.11 | 1.5 | 4.64 ± 0.3 | 54.01 | > 50 |
| CCOP(=O)(OCC)c1cccc2c(-c3ccc(C)cc3)cc(-c3ccc(F)c(F)c3)nc12 [7k, Diethyl (2-(3,4-difluorophenyl)-4-(p-tolyl)quinolin-8-yl)phosphonate] | 133 to 135 | 24.1 ± 7.79 | 0.9 | 2.72 ± 0.37 | 77.02 | 22.3 ± 1.36 |
| CCOP(=O)(OCC)c1ccc2nc(-c3ccc(F)cc3)cc(-c3ccc(C)cc3)c2c1 [7v, Diethyl (2-(4-fluorophenyl)-4-(p-tolyl)quinolin-6-yl)phosphonate] | 153 to 155 | 11.2 ± 4.42 | 0.6 | 0.84 ± 0.23 | 43.25 | > 50 |
| CCOP(=O)(OCC)c1cccc2c(-c3ccccc3)cc(-c3ccc4ccccc4c3)nc12 [7e, Diethyl (2-(naphthalen-2-yl)-4-phenylquinolin-8-yl)phosphonate] | 135 to 137 | 51.6 ± 1.52 | 2.5 | 3.18 ± 0.27 | 18.36 | 48.1 ± 6.39 |
